The results in this text go back to US6133292A, “Diaryl-5-alkyl-5-methyl-2-(5H)-furanones as selective cyclooxygenase-2-inhibitors” (Merck Frosst Canada & Co., priority 1998, dated 2000).

Broadly, the IC50 is the concentration that gives 50% inhibition.

Molecules are shown by their SMILES.

The target in series [1] is T1, COX-1 (Homo sapiens, UniProt P23219). The series is described as follows: Assay of COX-1 activity from U937 cell microsomes. It counts as biochemical. The arrangement: Assay of COX-1 Activity from U937 cell microsomes; endogenous in cells; host or cells: U937 cells, 100,000 x g microsomal fraction. Particulars: read-out: U937 Cox-1 (IC50, inhibition of PGE2 production). The protocol: Assay of COX-1 Activity from U937 cell microsomes
T1 sequence (P23219 24-599): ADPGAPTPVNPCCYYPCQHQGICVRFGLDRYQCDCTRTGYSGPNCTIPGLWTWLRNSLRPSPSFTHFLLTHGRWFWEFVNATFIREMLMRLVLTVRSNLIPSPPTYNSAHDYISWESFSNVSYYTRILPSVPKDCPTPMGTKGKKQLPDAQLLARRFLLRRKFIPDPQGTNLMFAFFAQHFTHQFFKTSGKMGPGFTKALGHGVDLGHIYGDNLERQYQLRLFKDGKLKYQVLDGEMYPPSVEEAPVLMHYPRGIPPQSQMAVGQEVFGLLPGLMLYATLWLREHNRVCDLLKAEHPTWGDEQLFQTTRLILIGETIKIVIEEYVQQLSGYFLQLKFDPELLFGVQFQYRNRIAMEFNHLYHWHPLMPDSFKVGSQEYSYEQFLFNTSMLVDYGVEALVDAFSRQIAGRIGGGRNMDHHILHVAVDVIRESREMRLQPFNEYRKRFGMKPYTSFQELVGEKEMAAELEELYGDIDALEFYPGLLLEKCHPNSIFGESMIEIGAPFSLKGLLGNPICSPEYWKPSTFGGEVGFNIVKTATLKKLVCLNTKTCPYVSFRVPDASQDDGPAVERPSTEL
U 937 cells are pelleted by centrifugation at 500 x g for 5 min and washed once with phosphate-buffered saline and repelleted. Cells are resuspended in homogenization buffer consisting of 0.1 M Tris-HCl, pH 7.4, 10 mM EDTA, 2 μg/ml leupeptin, 2 μg/ml soybean trypsin inhibitor, 2 μg/ml aprotinin and 1 mM phenyl methyl sulfonyl fluoride. The cell suspension is sonicated 4 times for 10 sec and is centrifuged at 10,000 x g for 10 min at 4° C. The supernatant is centrifuged at 100,000 x g for 1 hr at 4° C. The 100,000 x g microsomal pellet is resuspended in 0.1 M Tris-HCl, pH 7.4, 10 mM EDTA to approximately 7 mg protein/mil and stored at -80° C.
Microsomal preparations are thawed immediately prior to use, subjected to a brief sonication, and then diluted to a protein concentration of 125 μg/ml in 0.1 M Tris-HCl buffer, pH 7.4 containing 10 mM EDTA, 0.5 mM phenol, 1 mM reduced glutathione and 1 μM hematin. Assays are performed in duplicate in a final volume of 250 μl. Initially, 5 μl of DMSO vehicle or drug in DMSO are added to 20 μl of 0.1 M Tris-HCl buffer, pH 7.4 containing 10 mM EDTA in wells of a 96-deepwell polypropylene titre plate. 200 μl of the microsomal preparation are then added and pre-incubated for 15 min at room temperature before addition of 25 μl of […] arachidonic acid in […] Tris-HCl and 10 mM EDTA, pH 7.4. Samples are incubated for 40 min at room temperature and the reaction is stopped by the addition of 25 μl of 1 N HCl. Samples are neutralized with 25 μl of 1 N NaOH prior to quantitation of PGE2 content by radioimmunoassay (Dupont-NEN or Amersham assay kits). Cyclooxygenase activity is defined as the difference between PGE2 levels in samples incubated in the presence of arachidonic acid and ethanol vehicle.
(§1) Compounds of the present invention are inhibitors of COX-2 and are thereby useful in the treatment of COX-2 mediated diseases as enumerated above. The activities of the compounds against cyclooxygenase may be seen in the representative results shown below. In the assay, inhibition is determined by measuring the amount of prostaglandin E2 (PGE2) synthesized in the presence of arachidonic acid, COX-1 or COX-2 and a putative inhibitor. The IC50 values represent the concentration of putative inhibitor required to lower PGE2 synthesis to 50% of that obtained as compared to the uninhibited control.

The target in series [2] is T1, COX-1. The series is described as follows: Human whole blood assay, COX-1 (clotting-induced TxB2 production). It counts as cell-based. More on the design: platelets in whole blood contain a large amount of the COX-1 enzyme; from tissue; host or cells: fresh human whole blood without anticoagulant, platelets. Conditions: clotting-induced TxB2, 1 hour at 37° C, read-out: HWB Cox-1 (IC50). The protocol: (§2) Human whole blood provides a protein and cell-rich milieu appropriate for the study of biochemical efficacy of anti-inflammatory compounds such as selective COX-2 inhibitors. […] This is consistent with the observation that COX-2 inhibitors have no effect on PGE2 production in normal blood. These inhibitors are active only after incubation of human whole blood with LPS, which induces COX-2. This assay can be used to evaluate the inhibitory effect of selective COX-2 inhibitors on PGE2 production. As well, platelets in whole blood contain a large amount of the COX-1 enzyme. Immediately following blood clotting, platelets are activated through a thrombin-mediated mechanism. This reaction results in the production of thromboxane B2 (TXB2) via activation of COX-1. Thus, the effect of test compounds on TxB2 levels following blood clotting can be examined and used as an index for COX-1 activity. Therefore, the degree of selectivity by the test compound can be determined by measuring the levels of PGE2 after LPS induction (COX-2) and TxB2 following blood clotting (COX-1) in the same assay.
B. COX-1 (Clotting-induced TxB2 production)
Fresh blood is collected into vacutainers containing no anticoagulants. […] The tubes are vortexed and incubated at 37° C. for 1 hour to allow blood to clot. At the end of incubation, serum is obtained by centrifugation (12,000 x g for 5 min.). A 100 μL aliquot of serum is mixed with 400 μL of methanol for protein precipitation. The supernatant is obtained and is assayed for TxB2 using a enzyme immunoassay kit (Cayman, #519031) according to the manufacturer's instruction. […]

For series [3], the target named is T2, COX-2 (Homo sapiens, UniProt P35354).
T2 sequence (P35354 18-604): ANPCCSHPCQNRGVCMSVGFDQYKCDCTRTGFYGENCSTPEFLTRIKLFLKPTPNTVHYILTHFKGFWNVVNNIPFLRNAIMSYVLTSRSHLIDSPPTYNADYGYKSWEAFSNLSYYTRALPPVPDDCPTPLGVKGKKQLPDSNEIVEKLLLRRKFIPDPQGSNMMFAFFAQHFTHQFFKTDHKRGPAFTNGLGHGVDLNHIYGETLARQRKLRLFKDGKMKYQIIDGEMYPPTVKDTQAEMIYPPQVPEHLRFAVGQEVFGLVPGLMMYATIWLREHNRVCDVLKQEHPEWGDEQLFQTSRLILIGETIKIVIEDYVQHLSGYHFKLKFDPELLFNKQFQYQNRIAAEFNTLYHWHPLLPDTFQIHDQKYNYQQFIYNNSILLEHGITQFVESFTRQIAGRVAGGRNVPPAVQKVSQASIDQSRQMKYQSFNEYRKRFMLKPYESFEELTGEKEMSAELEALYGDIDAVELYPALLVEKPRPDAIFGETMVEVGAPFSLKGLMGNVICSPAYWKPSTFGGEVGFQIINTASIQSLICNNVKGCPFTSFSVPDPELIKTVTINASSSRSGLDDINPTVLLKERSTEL
The series is described as follows: Human whole blood assay, COX-2 (LPS-induced PGE2 production). The series is classed as cell-based. More on the design: incubation of human whole blood with LPS, which induces COX-2; from tissue; host or cells: fresh heparinized human whole blood from male and female volunteers, LPS-stimulated. Particulars: 24 hours at 37° C, read-out: HWB Cox-2 (IC50, inhibition of PGE2 production). The procedure: as §2
A. COX-2 (LPS-induced PGE9 production)
Fresh blood is collected in heparinized tubes by venipuncture from both male and female volunteers. The subjects have no apparent inflammatory conditions and have not taken any NSAIDs for at least 7 days prior to blood collection. Plasma is immediately obtained from a 2 mL blood aliquot to use as blank (basal levels of PGE2). The remaining blood is incubated with LPS (100 μg/ml final concentration, Sigma Chem, #L-2630 from E. coli; diluted in 0.1% BSA (Phosphate buffered saline) for 5 minutes at room temperature. Five hundred μL aliquots of blood are incubated with either 2 μL of vehicle (DMSO) or 2 μL of a test compound at final concentrations varying from 10 nM to 30 μM for 24 hours at 37° C. At the end of the incubation, the blood is centrifuged at 12,000 x g for 5 minutes to obtain plasma. A 100 μL aliquot of plasma is mixed with 400 μL of methanol for protein precipitation. The supernatant is obtained and is assayed for PGE2 using a radioimmunoassay kit (Amersham, RPA#530) after conversion of PGE2 to its methyl oximate derivative according to the manufacturer's procedure.
as §1

The nature of series [4]: Pharmacokinetics in rats (half-life). It counts as in vivo, rat (male Sprague Dawley). Conditions: rat, blood, read-out: T 1/2 in Rats (converted). From the text: Per Os Pharmacokinetics in Rats--Procedure:
The animals are housed, fed and cared for according to the Guidelines of the Canadian Council on Animal Care. Male Sprague Dawley rats (325-375 g) are fasted overnight prior to each PO blood level study. The rats are placed in the restrainer one at a time and the box firmly secured. The zero blood sample is obtained by nicking a small (1 mm or less) piece off the tip of the tail. The tail is then stroked with a firm but gentle motion from the top to the bottom to milk out the blood. Approximately 1 mL of blood is collected into a heparirnized vacutainer tube.
Compounds are prepared as required, in a standard dosing volume of 10 mL/kg, and administered orally by passing a 16 gauge, 3" gavaging needle into the stomach. Subsequent bleeds are taken in the same manner as the zero bleed except that there is no need to nick the tail again. The tail is cleaned with a piece of gauze and milked/stroked as described above into the appropriately labelled tubes.
Immediately after sampling, blood is centrifuged, separated, put into clearly marked vials and stored in a freezer until analysed. Typical time points for determination of rat blood levels after PO dosing are 0, 15 min, 30 min, 1 h, 2 h, 4 h, and 6 h.
After the 4 hr time point bleed, food is provided to the rats ad libitum. Water is provided at all times during the study.
The following vehicles may be used in PO rat blood level determinations:
Compounds for PO blood levels can be in suspension form. For better dissolution, the solution can be placed in a sonicator for approximately 5 minutes.
For analysis, aliquots are diluted with an equal volume of acetonitrile and centrifuged to remove protein precipitate. The supernatant is injected directly onto a C-18 HPLC column with UV detection. Quantitation is done relative to a clean blood sample spiked with a known quantity of drug.
Intravenous Pharmacokinetics in Rats--Procedure
The animals are housed, fed and cared for according to the Guidelines of the Canadian Council on Animal Care. Male Sprague Dawley (325-375 g) rats are placed in plastic shoe box cages with a suspended floor, cage top, water bottle and food. The compound is prepared as required, in a standard dosing volume of 1 mL/kg.
Rats are bled for the zero blood sample and dosed under CO2 sedation. The rats, one at a time, are placed in a primed CO2 chamber and taken out as soon as they have lost their righting reflex. The rat is then placed on a restraining board, a nose cone with CO2 delivery is placed over the muzzle and the rat restrained to the board with elastics. With the use of forceps and scissors, the jugular vein is exposed and the zero sample taken, followed by a measured dose of compound which is injected into the jugular vein. Light digital pressure is applied to the injection site, and the nose cone is removed. The time is noted. This constitutes the zero time point.
The 5 min bleed is taken by nicking a piece (1-2 mm) off the tip of the tail. The tail is then stroked with a firm but gentle motion from the top of the tail to the bottom to milk the blood out of the tail. Approximately 1 mL of blood is collected into a heparinized collection vial. Subsequent bleeds are taken in the same fashion, except that there is no need to nick the tail again. The tail is cleaned with a piece of gauze and bled, as described above, into the appropriate labelled tubes. Typical time points for determination of rat blood levels after I.V. dosing are either a) 0, 5 min, 15 min, 30 min, 1 h, 2 h, 6 h, or b) 0, 5 min, 30 min, 1 h, 2 h, 4 h, 6 h.
The following vehicles may be used in IV rat blood level determinations:
DMSO (dimethylsulfoxide): Restricted to a dose volume of 0.1 mL per animal
PEG 200: Not more than 60% mixed with 40% sterile water --1 mL/kg
With Dextrose, either sodium bicarbonate or sodium carbonate can be added if the solution is cloudy. […]

Consider `CCC1(C)OC(=O)C(c2ccccc2)=C1c1ccc(S(C)(=O)=O)cc1` (stereo not drawn) [a, 5-ethyl-5-methyl-4-[4-(methylsulfonyl)phenyl]-3-phenyl-2,5-dihydro-2-furanone], for which the figures for the half-maximal inhibitory concentration (IC50) in series [1], in series [2] and in series [3] were 3 to 10 µM, above 30 µM and below 370 nM, respectively.

In the case of `CCC1(C)OC(=O)C(c2cccc(F)c2)=C1c1ccc(S(C)(=O)=O)cc1` (stereo not drawn) [f, 5-ethyl-3-(3-fluorophenyl)-5-methyl-4-[4-(methylsulfonyl)phenyl]-2,5-dihydro-2-furanone], the concentration for half-maximal inhibition (IC50) in series [1] was above 10 µM; in series [2] it was above 30 µM; in series [3], 480 nM.

With `CC1(C)OC(=O)C(c2ccc(F)c(F)c2)=C1c1ccc(S(C)(=O)=O)cc1` [Compound T3-2, 3-(3,4-difluorophenyl)-5,5-dimethyl-4-[4-(methylsulfonyl)phenyl]-2,5-dihydro-2-furanone, reference compound], the half-life in series [4] was above 1440 min. The IC50 in series [1] was 10 to 30 µM; in series [2], above 30 µM.
